5 molecules from patent publication US11931338B2, “Nitrilated psilocybin derivatives and methods of using” (Enveric Biosciences Canada Inc., priority 2020, dated 2024) can be followed below.

One assay has as its target T1, 5-HT1A receptor (Homo sapiens, UniProt P08908).
T1 sequence (P08908 1-422): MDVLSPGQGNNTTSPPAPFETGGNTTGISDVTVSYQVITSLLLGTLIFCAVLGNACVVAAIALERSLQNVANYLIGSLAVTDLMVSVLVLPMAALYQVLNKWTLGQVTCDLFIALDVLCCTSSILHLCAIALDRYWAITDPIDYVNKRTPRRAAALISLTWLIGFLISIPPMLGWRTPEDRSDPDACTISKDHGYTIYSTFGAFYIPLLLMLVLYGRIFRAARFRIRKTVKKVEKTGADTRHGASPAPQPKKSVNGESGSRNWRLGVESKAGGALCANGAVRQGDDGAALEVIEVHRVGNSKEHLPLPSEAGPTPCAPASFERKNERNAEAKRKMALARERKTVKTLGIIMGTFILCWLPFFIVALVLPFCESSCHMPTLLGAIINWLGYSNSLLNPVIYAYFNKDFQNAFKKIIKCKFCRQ
The assay can be described thus: cAMP-Glo assay in CHO-K1/5-HT1A/Gα15 (+5-HT1A) and CHO-K1/Gα15 (−5-HT1A) cells. Particulars: for luminescence (cAMP) in +5HT1A cell culture at various compound concentrations: 5-HT1A activity: fixed (4 μM) forskolin, +5HT1A cells, FIG. 14B-14D; for relative cAMP levels with increasing compound concentration in +5HT1A and −5HT1A cells: constant (4 μM) forskolin, 5-HT1AR cells vs CHO-K1 cells, n=3, FIG. 14F, 14G.

For a further assay, the target named is T2, 5-HT2A receptor (Homo sapiens, UniProt P28223).
T2 construct: purchased PerkinElmer ES-313-M400UA
The assay can be described thus: [3H]ketanserin competition binding assay (Scintillation Proximity Assay) with membranes containing 5-HT2A. Particulars: fixed (1 nM) [3H]ketanserin; FIG. 13C, 13D. The text has this: Evaluation of drug binding is an essential step to characterization of all drug-target interactions (Fang 2012, Exp Opin Drug Discov 7:969). The binding affinity of a drug to a target is traditionally viewed as an acceptable surrogate of its in vivo efficacy (Núñez et al., 2012, Drug Disc Today 17: 10). Competition assays, also called displacement or modulation binding assays, are a common approach to measure activity of a ligand at a target receptor (Flanagan 2016, Methods Cell Biol 132: 191). In these assays, standard radioligands acting either as agonists or antagonists are ascribed to specific receptors. […] After incubation, the samples were read on a MicroBeta 2 Microplate Counter (Perkin Elmer). […] Equilibrium binding constants for ketanserin (Kd) were determined from saturation binding curves using the ‘one-site saturation binding analysis’ method of GraphPad PRISM software (Version 9.2.0). […] Ki values were calculated from the competition displacement data using the competitive binding analysis from GraphPad PRISM software. […] Specific binding in counts per minute (cpm) was calculated by subtracting non-specific binding from total binding. Specific binding (pmol/mg) was calculated from pmol of [^3H]ketanserin bound per mg of protein in the assay. The Kd was calculated by fitting the data with the one-site binding model of PRISM software (version 9.2.0).

Structures are written as SMILES.

T2 sequence (P28223 whole entry): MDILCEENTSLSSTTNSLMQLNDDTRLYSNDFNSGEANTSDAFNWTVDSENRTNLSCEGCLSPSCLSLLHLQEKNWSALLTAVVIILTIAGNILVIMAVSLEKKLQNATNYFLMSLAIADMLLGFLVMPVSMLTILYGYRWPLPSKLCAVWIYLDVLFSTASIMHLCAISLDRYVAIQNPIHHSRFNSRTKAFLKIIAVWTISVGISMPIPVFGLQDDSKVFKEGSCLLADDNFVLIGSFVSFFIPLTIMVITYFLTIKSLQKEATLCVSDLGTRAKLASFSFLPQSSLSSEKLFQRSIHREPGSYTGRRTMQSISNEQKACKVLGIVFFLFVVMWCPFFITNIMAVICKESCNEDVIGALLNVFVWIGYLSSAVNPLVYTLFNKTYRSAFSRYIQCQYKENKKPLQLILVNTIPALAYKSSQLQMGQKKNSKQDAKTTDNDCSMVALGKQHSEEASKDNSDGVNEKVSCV
Text for 5-HT1A receptor: CHO-K1/Gα15 (GenScript, M00257) (−5-HT1A) and CHO-K1/5-HT1A/Gα15 (GenScript, M00330) (+5-HT1A) cells lines were used. Briefly, CHO-K1/Gα15 is a control cell line that constitutively expresses Gα15 which is a promiscuous Gq protein. This control cell line lacks any transgene encoding 5-HT1A receptors, but still respond to forskolin; thus, cAMP response to forskolin should be the same regardless of whether or not 5-HT1A agonists are present. Conversely, CHO-K1/5-HT1A/Gα15 cells stably express 5-HT1A receptor in the CHO-K1 host background. […] In contrast, tryptophan is not known to activate 5-HT1A receptors, and was thus used as a negative control. Cells were maintained in complete growth media as recommended by supplier (GenScript) which is constituted as follows: Ham's F12 Nutrient mix (HAM's F12, GIBCO #11765-047) with 10% fetal bovine serum (FBS) (Thermo Scientific #12483020), 200 μg/ml zeocin (Thermo Scientific #R25005) and/or 100 μg/ml hygromycin (Thermo Scientific #10687010). The cells were cultured in a humidified incubator with 37° C. and 5% CO2. Cells maintenance was carried out as recommended by the cell supplier. Briefly, vials with cells were removed from the liquid nitrogen and thawed quickly in 37° C. water bath. Just before the cells were completely thawed the vial's outside was decontaminated by 70% ethanol spray. The cells suspension was then retrieved from the vial and added to warm (37° C.) complete growth media, and centrifuged at 1,000 rpm for 5 minutes. The supernatant was discarded and the cell pellet was then resuspended in another 10 ml of complete growth media, and added to the 10 cm cell culture dish (Greiner Bio-One #664160). The media was changed every third day until the cells were about 90% confluent. The ˜90% confluent cells were then split 10:1 for maintenance or used for experiment. As 5-HT1AR activation inhibits cAMP formation, the agonist activity of test molecules on 5-HT1AR was measured via the reduction in the levels of cAMP produced due to application of 4 μM forskolin. The change in intracellular cAMP levels due to the treatment of novel molecules was measured using cAMP-Glo Assay kit (Promega #V1501). Briefly, +5-HT1A cells were seeded on 1-6 columns and base −5-HT1A cells were seeded on columns 7-12 of the white walled clear bottom 96-well plate (Corning, #3903). Both cells were seeded at the density of 30,000 cells/well in 100 μl complete growth media and cultured 24 hrs in humidified incubator at 37° C. and 5% CO2. On the experiment day, the media of cells was replaced with serum/antibiotic free culture media. Then the cells were treated for 20 minutes with test molecules dissolved in induction medium (serum/antibiotic free culture media containing 4 μM forskolin, 500 μM IBMX (isobutyl-1-methylxanthine, Sigma-Aldrich, Cat. #17018) and 100 μM (RO 20-1724, Sigma-Aldrich, Cat. #B8279)). Forskolin induced cAMP formation whereas IBMX and RO 20-1724 inhibited the degradation of cAMP. PKA was added to the lysate, mixed, and subsequently the substrate of the PKA was added. PKA was activated by cAMP, and the amount of ATP consumed due to PKA phosphorylation directly corresponded to cAMP levels in the lysate. Reduced ATP caused reduced conversion of luciferin to oxyluciferin, conferring diminished luminescence as the result of 5-HT1A activation.

With `CN(C)CCc1c[nH]c2ccccc12` [DMT], the “luminescence (cAMP) in +5HT1A cell culture at various compound concentrations: 5-HT1A activity” value (“luminescence (cAMP)” below) on 5-HT1A receptor is listed as 5-HT1A activity.

For `CC(=O)NCCc1c[nH]c2c(C)cc(C#N)cc12` [compound (VIII), N-[2-(5-cyano-7-methyl-1H-indol-3-yl)ethyl]acetamide], at 5-HT1A receptor, the “relative cAMP levels with increasing compound concentration in +5HT1A and −5HT1A cells” value was “agonist of 5HT1A”; the “luminescence (cAMP)” value was 5-HT1A activity. For the molecule `CN(C)CCc1c[nH]c2cccc(O)c12` [psilocin], on 5-HT2A receptor, the “competition binding curve against [3H]ketanserin at the 5-HT2A receptor” value was “binding”. Regarding `NCCc1c[nH]c2ccc(O)cc12` [serotonin], the “relative cAMP levels with increasing compound concentration in +5HT1A and −5HT1A cells” value on 5-HT1A receptor is “agonist of 5HT1A”. `N[C@@H](Cc1c[nH]c2ccccc12)C(=O)O` [tryptophan]: the “competition binding curve against [3H]ketanserin at the 5-HT2A receptor” value on 5-HT2A receptor is reported as “no binding”. In addition, on 5-HT1A receptor, the “luminescence (cAMP)” value was “lack of 5-HT1A activity”.
